Source: patent publication US11077126B2 (priority 2017, dated 2021)
Like-named read-outs stand apart in the source and are kept apart here.

System: mouse bone marrow polychromatic erythrocytes
Details: mouse, in vivo; for Number of Micronuclei / P/N / P/N Ratio: po
Protocol: It is the object to test the mutagenic potential of drugs on mammalian somatic cells, and provide a basis for clinical drug use.
An appropriate amount of 0.5% sodium carboxymethyl cellulose solution was added to prepare a suspension, and the suspension was stored in a refrigerator at 4° C. The negative control was an equal amount of 0.5% sodium carboxymethylcellulose solution. The positive control was prepared as follows: an appropriate amount of cyclophosphamide used for injection was weighed, and was dissolved in normal saline at the time of use to prepare 60 mg/kg of solution.
6 mice per group. The doses, number of administrations, and bone marrow sampling time are selected in the pre-test.
The dose is reduced by ½ LD50 as the standard, and the number of administrations is one time. According to the pre-test results, the bone marrow sampling time is to sample 24 hours after administration.
At least three dose groups, respectively: 2,000 mg/kg, 1,000 mg/kg, 500 mg/kg
The number of administrations: one-time oral administration.
Oral (Intragastric) administration.
2.4.3 Bone marrow sampling time: 24 hours after administration.
The mice were sacrificed by cervical dislocation. Then the sternums were taken to remove the muscles thereon and the attachments were wiped with a gauze. Direct smear of bone marrow was used: the sternums were cut to expose the medullary cavity, and bone marrow was extruded and mixed well with a drop of calf serum on a slide beforehand as a push piece. After being dried, the slide was fixed in methanol for 10 minutes, and then after it was dried, it was then subjected to Giemsa staining. Each mouse was microscopically examined for about 1,000 polychromatic erythrocytes with intact contours of erythrocytes, and the frequency of occurrence of micronuclei and the ratio of polychromatic erythrocytes to erythrocytes were counted.

## Carrimycin
  conclusion of micronucleus test: chromosomal cleavage: is not a chromosomal cleavage agent
  conclusion of micronucleus test: effect on the bone marrow: no inhibitory effect on the bone marrow
  micronucleus rate of polychromatic erythrocytes compared with the negative control group: do not have significant increase
500 mg/kg
  Number of Micronuclei: 18
  P/N: 0.34
  P/N Ratio: 0.34
1000 mg/kg
  Number of Micronuclei: 16
  P/N: 0.33
  P/N Ratio: 0.33
2000 mg/kg
  Number of Micronuclei: 21
  P/N: 0.38
  P/N Ratio: 0.38
